From patent US6703421B1, “Methods of using phenylmethylbenzoquinone and hydroquinone compounds for treatment of myocarditis, dilated cardiomyopathy and heart failure” (Daiichi Suntory Pharma Co., Ltd., priority 1999, dated 2004)
Like-named read-outs stand apart in the source and are kept apart here.

System: NF-κB
Assay: NF-κB luciferase reporter assay in A549/NF-κBLuc cells
Format: cell-based, human
Settings: A549/NF-κBLuc, luciferase activity
Protocol: Using lipofectamine (Lifetech Oriental K. K., Tokyo) according to the conventional method, human lung cancer cell line A549 cells (ATCC catalog no. CCL185), which are known to express hiNOS by cytokine stimulation, were co-transfected with pNFκB-Luc, which are plasmid controlled by a NF-κB binding consensus sequence, and pSV2neo (Clontech, U.S.A.), and then A549/NF-κBLuc, the cell that has stably introduced pNFκB-Luc, was selected by adding G418 sulfate (1 mg/ml, Lifetech Oriental K. K.) to the culture medium.
The luciferase activity was measured using the Luciferase Assay System (Promega, U.S.A.).

[1] = Homo sapiens, IL-1β (1 ng/ml) for 4 hours, read-out: IC50 (μM) IL-1 stimulation

IC50 [1] | Compound | other results
– | 2-[5-Methylthieno[2,3-d]pyrimidine-4-yl]aminoindan-5-carboxylic Acid Morpholinamide [Prod. Ex. 221] | IC50 (IL-1β (1 ng/ml) for 4 hours, read-out: IC50 (μM) IL-1 stimulation): 0.051 µM; IC50 (TNF-α (500 ng/ml) for 4 hours, read-out: IC50 (μM) TNF stimulation): 0.089 µM
29 µM | COC1=C(OC)C(=O)C(Cc2ccc(CCC(=O)N3CCOCC3)cc2)=C(C)C1=O [Prod. Ex. 3, N-[3-[4-(5,6-Dimethoxy-3-methyl-1,4-benzoquinon-2-ylmethyl)phenyl]propionyl]morpholine] | –
3 µM | COC1=C(OC)C(=O)C(Cc2ccc(CCC(=O)NC(C)C)cc2)=C(C)C1=O [Prod. Ex. 9, N-[3-[4-(5,6-Dimethoxy-3-methyl-1,4-benzoquinon-2-ylmethyl)phenyl]propionyl]isopropylamine] | IC50 (Homo sapiens, TNF-α (500 ng/ml) for 4 hours, read-out: IC50 (μM) TNF stimulation): 4 µM
42 µM | COC1=C(OC)C(=O)C(Cc2ccc(C(=O)NC(C)C)cc2)=C(C)C1=O [Prod. Ex. 23, N-[4-(5,6-Dimethoxy-3-methyl-1,4-benzoquinon-2-ylmethyl)benzoyl]isopropylamine] | –
15 µM | COC1=C(OC)C(=O)C(Cc2ccc(CCCC(=O)N3CCOCC3)cc2)=C(C)C1=O [Prod. Ex. 27, N-[4-[4-(5,6-Dimethoxy-3-methyl-1,4-benzoquinon-2-ylmethyl)phenyl]butanoyl]morpholine] | –
14 µM | COC1=C(OC)C(=O)C(Cc2ccc(CCCC(=O)N3CCSCC3)cc2)=C(C)C1=O [Prod. Ex. 28, N-[4-[4-(5,6-Dimethoxy-3-methyl-1,4-benzoquinon-2-ylmethyl)phenyl]butanoyl]thiomorpholine] | –
13 µM | COC1=C(OC)C(=O)C(Cc2ccc(CCCC(=O)N3CCCCC3)cc2)=C(C)C1=O [Prod. Ex. 29, N-[4-[4-(5,6-Dimethoxy-3-methyl-1,4-benzoquinon-2-ylmethyl)phenyl]butanoyl]piperidine] | –
14 µM | COC1=C(OC)C(=O)C(Cc2ccc(CCCC(=O)NC(C)C)cc2)=C(C)C1=O [Prod. Ex. 30, N-[4-[4-(5,6-Dimethoxy-3-methyl-1,4-benzoquinon-2-ylmethyl)phenyl]butanoyl]isopropylamine] | –
24 µM | COC1=C(OC)C(=O)C(Cc2cccc(CCC(=O)N3CCCCC3)c2)=C(C)C1=O [Prod. Ex. 32, N-[3-[3-(5,6-Dimethoxy-3-methyl-1,4-benzoquinon-2-ylmethyl)phenyl]propionyl]piperidine] | –
28 µM | COC1=C(OC)C(=O)C(Cc2cccc(CCC(=O)N3CCSCC3)c2)=C(C)C1=O [Prod. Ex. 33, N-[3-[3-(5,6-Dimethoxy-3-methyl-1,4-benzoquinon-2-ylmethyl)phenyl]propionyl]thiomorpholine] | –
29 µM | COC1=C(OC)C(=O)C(Cc2cccc(CCC(=O)N3CCOCC3)c2)=C(C)C1=O [Prod. Ex. 34, N-[3-[3-(5,6-Dimethoxy-3-methyl-1,4-benzoquinon-2-ylmethyl)phenyl]propionyl]morpholine] | –
8 µM | COC1=C(OC)C(=O)C(Cc2cccc(CCC(=O)NC(C)C)c2)=C(C)C1=O [Prod. Ex. 35, N-[3-[3-(5,6-Dimethoxy-3-methyl-1,4-benzoquinon-2-ylmethyl)phenyl]propionyl]isopropylamine] | –
49 µM | COC1=C(OC)C(=O)C(Cc2cccc(/C=C/C(=O)N3CCCCC3)c2)=C(C)C1=O [Prod. Ex. 37, N-[3-[3-(5,6-Dimethoxy-3-methyl-1,4-benzoquinon-2-ylmethyl)phenyl]acryloyl]piperidine] | –
39 µM | COC1=C(OC)C(=O)C(Cc2cccc(/C=C/C(=O)NC(C)C)c2)=C(C)C1=O [Prod. Ex. 39, N-[3-[3-(5,6-Dimethoxy-3-methyl-1,4-benzoquinon-2-ylmethyl)phenyl]acryloyl]isopropylamine] | –
22 µM | COC1=C(OC)C(=O)C(Cc2cccc(C(=O)NC(C)C)c2)=C(C)C1=O [Prod. Ex. 42, N-[3-(5,6-Dimethoxy-3-methyl-1,4-benzoquinon-2-ylmethyl)benzoyl]isopropylamine] | –
21 µM | COC1=C(OC)C(=O)C(Cc2cccc(C(=O)N3CCCCC3)c2)=C(C)C1=O [Prod. Ex. 43, N-[3-(5,6-Dimethoxy-3-methyl-1,4-benzoquinon-2-ylmethyl)benzoyl]piperidine] | –
17 µM | COC1=C(OC)C(=O)C(Cc2cccc(C(=O)N3CCSCC3)c2)=C(C)C1=O [Prod. Ex. 45, N-[3-(5,6-Dimethoxy-3-methyl-1,4-benzoquinon-2-ylmethyl)benzoyl]thiomorpholine] | –
17 µM | CC1=C(C)C(=O)C(Cc2ccc(CCC(=O)NC(C)C)cc2)=C(C)C1=O [Prod. Ex. 46] | –
21 µM | CC1=C(C)C(=O)C(Cc2ccc(CCC(=O)N3CCCCC3)cc2)=C(C)C1=O [Prod. Ex. 47, N-[3-[4-(3,5,6-Trimethyl-1,4-benzoquinon-2-ylmethyl)phenyl]propionyl]piperidine] | –

IC50 [1] | Compound | other results
18 µM | CC1=C(C)C(=O)C(Cc2ccc(CCC(=O)N3CCOCC3)cc2)=C(C)C1=O [Prod. Ex. 48, N-[3-[4-(3,5,6-Trimethyl-1,4-benzoquinon-2-ylmethyl)phenyl]propionyl]morpholine] | –
28 µM | CC1=C(C)C(=O)C(Cc2cccc(CCC(=O)NC(C)C)c2)=C(C)C1=O [Prod. Ex. 49, N-[3-[3-(3,5,6-Trimethyl-1,4-benzoquinon-2-ylmethyl)phenyl]propionyl]isopropylamine] | –
16 µM | CC1=C(C)C(=O)C(Cc2cccc(CCC(=O)N3CCCCC3)c2)=C(C)C1=O [Prod. Ex. 50, N-[3-[3-(3,5,6-Trimethyl-1,4-benzoquinon-2-ylmethyl)phenyl]propionyl]piperidine] | –
18 µM | CC1=C(C)C(=O)C(Cc2cccc(CCC(=O)N3CCOCC3)c2)=C(C)C1=O [Prod. Ex. 51, N-[3-[3-(3,5,6-Trimethyl-1,4-benzoquinon-2-ylmethyl)phenyl]propionyl]morpholine] | –
8 µM | COC1=C(OC)C(=O)C(Cc2ccc(CC(=O)N3CCOCC3)cc2)=C(C)C1=O [Prod. Ex. 53, N-[4-(5,6-Dimethoxy-3-methyl-1,4-benzoquinon-2-ylmethyl)phenylacetyl]morpholine] | –
5 µM | COC1=C(OC)C(=O)C(Cc2ccc(CC(=O)N3CCCCC3)cc2)=C(C)C1=O [Prod. Ex. 54, N-[4-(5,6-Dimethoxy-3-methyl-1,4-benzoquinon-2-ylmethyl)phenylacetyl]piperidine] | –
7 µM | COC1=C(OC)C(=O)C(Cc2ccc(CC(=O)N3CCSCC3)cc2)=C(C)C1=O [Prod. Ex. 55, N-[4-(5,6-Dimethoxy-3-methyl-1,4-benzoquinon-2-ylmethyl)phenylacetyl]thiomorpholine] | –
5 µM | COC1=C(OC)C(=O)C(Cc2ccc(CC(=O)NC(C)C)cc2)=C(C)C1=O [Prod. Ex. 56, N-[4-(5,6-Dimethoxy-3-methyl-1,4-benzoquinon-2-ylmethyl)phenylacetyl]isopropylamine] | –
13 µM | COC1=C(OC)C(=O)C(Cc2cccc(CC(=O)N3CCCCC3)c2)=C(C)C1=O [Prod. Ex. 58, N-[3-(5,6-Dimethoxy-3-methyl-1,4-benzoquinon-2-ylmethyl)phenylacetyl]piperidine] | –
12 µM | COC1=C(OC)C(=O)C(Cc2cccc(CC(=O)N3CCSCC3)c2)=C(C)C1=O [Prod. Ex. 59, N-[3-(5,6-Dimethoxy-3-methyl-1,4-benzoquinon-2-ylmethyl)phenylacetyl]thiomorpholine] | –
18 µM | COC1=C(OC)C(=O)C(Cc2cccc(CC(=O)N3CCOCC3)c2)=C(C)C1=O [Prod. Ex. 60, N-[3-(5,6-Dimethoxy-3-methyl-1,4-benzoquinon-2-ylmethyl)phenylacetyl]morpholine] | –
24 µM | COC1=C(OC)C(=O)C(Cc2cccc(CC(=O)NC(C)C)c2)=C(C)C1=O [Prod. Ex. 61, N-[3-(5,6-Dimethoxy-3-methyl-1,4-benzoquinon-2-ylmethyl)phenylacetyl]isopropylamine] | –
2 µM | COC1=C(OC)C(=O)C(Cc2cccc(CCCC(=O)N3CCCCC3)c2)=C(C)C1=O [Prod. Ex. 63, N-[4-[3-(5,6-Dimethoxy-3-methyl-1,4-benzoquinon-2-ylmethyl)phenyl]butanoyl]piperidine] | –
5 µM | COC1=C(OC)C(=O)C(Cc2cccc(CCCC(=O)N3CCSCC3)c2)=C(C)C1=O [Prod. Ex. 64, N-[4-[3-(5,6-Dimethoxy-3-methyl-1,4-benzoquinon-2-ylmethyl)phenyl]butanoyl]thiomorpholine] | –
12 µM | COC1=C(OC)C(=O)C(Cc2cccc(CCCC(=O)N3CCOCC3)c2)=C(C)C1=O [Prod. Ex. 65, N-[4-[3-(5,6-Dimethoxy-3-methyl-1,4-benzoquinon-2-ylmethyl)phenyl]butanoyl]morpholine] | –
3 µM | COC1=C(OC)C(=O)C(Cc2cccc(CCCC(=O)NC(C)C)c2)=C(C)C1=O [Prod. Ex. 66, N-[4-[3-(5,6-Dimethoxy-3-methyl-1,4-benzoquinon-2-ylmethyl)phenyl]butanoyl]isopropylamine] | –
44 µM | COC1=C(OC)C(=O)C(Cc2ccccc2CCC(=O)N2CCCCC2)=C(C)C1=O [Prod. Ex. 70, N-[3-[2-(5,6-Dimethoxy-3-methyl-1,4-benzoquinon-2-ylmethyl)phenyl]propionyl]piperidine] | –
56 µM | COC1=C(OC)C(=O)C(Cc2ccccc2CCC(=O)N2CCOCC2)=C(C)C1=O [Prod. Ex. 71, N-[3-[2-(5,6-Dimethoxy-3-methyl-1,4-benzoquinon-2-ylmethyl)phenyl]propionyl]morpholine] | –
42 µM | COC1=C(OC)C(=O)C(Cc2ccccc2CCC(=O)N2CCSCC2)=C(C)C1=O [Prod. Ex. 72, N-[3-[2-(5,6-dimethoxy-3-methyl-1,4-benzoquinon-2-ylmethyl)phenyl]propionyl]thiomorpholine] | –
